Reference: US20110257144A1 (APEX LABORATORIES PRIVATE LIMITED, priority 2008, published 2011)

Legend:
Staphylococcus aureus = test: In vitro antimicrobial zone of inhibition study; type: cell-based
Procedure: API-stability experiments were carried out (see tables 4-14) using the product of the present invention and products currently commercially available. Tests were carried out to observe (or measure as appropriate) the physical appearance of the product, the pH value and assay of the API over a period of time. Tests were also carried out to assess the stability by subjecting the product to stress studies such as autoclave test and oxydative degradation test. Further, in vitro antimicrobial zone of inhibition studies were also carried out over a period of time. […] The antimicrobial/antibacterial activity of the product is confirmed by the in vitro Antimicrobial Zone of Inhibition studies for the product against Staphylococcus aureus. The details of the studies are detailed below in Table 15.

[1] = Stability of raw API after 3 months in open and closed Petri dish, stability-indicating HPLC method and titration method; type: physicochemical; conditions: for Percentage Drop (%) HPLC: after 3 months; for *Initial (%): assay at the time of receipt of the API from the supplier
Procedure: Degradation due to oxidation is a major cause of instability of currently available Fusidic acid creams. […] It can be observed from Tables 1 and 2 that: • In the case of Fusidic Acid, there is about 7.7% loss in 3 Months at room temperature (open condition) and about 11% loss in 3 Months at 45° C. […] (open condition).

SMILES	Inference (Staphylococcus aureus; dose 10 mcg)	Zone Diameter Range (mm) (Staphylococcus aureus; dose 10 mcg)	Inference (Staphylococcus aureus; dose 20 mcg)	Zone Diameter Range (mm) (Staphylococcus aureus; dose 20 mcg)	Inference (Staphylococcus aureus; dose 50 mcg)	Zone Diameter Range (mm) (Staphylococcus aureus; dose 50 mcg)	Percentage Drop (%) HPLC ([1]; 45° C. (Open) Petri dish)	Percentage Drop (%) HPLC ([1]; RT (Open) Petri dish)	*Initial (%) ([1]; listed as FUSIDIC ACID BP)	Inference (Staphylococcus aureus; dose 10 Units)	Zone Diameter Range (mm) (Staphylococcus aureus; dose 10 Units)	stability as an API (comparison) ([1]; Sodium Fusidate versus Fusidic acid, Tables 1 and 2)	*Initial (%) ([1]; listed as Sodium Fusidate BP)
CC(=O)O[C@H]1C[C@@]2(C)[C@@H](C[C@@H](O)[C@H]3[C@@]4(C)CC[C@@H](O)[C@@H](C)[C@@H]4CC[C@@]32C)/C1=C(\CCC=C(C)C)C(=O)O [Fusidic acid]	Sensitive	21-33 mm	Sensitive	20-30 mm	Sensitive	25-32 mm	about 11%	about 7.7%	100.6%	–	–	–	–
CC1(C)S[C@@H]2[C@H](NC(=O)Cc3ccccc3)C(=O)N2[C@H]1C(=O)O [Penicillin G]	–	–	–	–	–	–	–	–	–	Resistant	21-27 mm	–	–
CC(=O)O[C@H]1C[C@@]2(C)[C@@H](C[C@@H](O)[C@H]3[C@@]4(C)CC[C@@H](O)[C@@H](C)[C@@H]4CC[C@@]32C)/C1=C(\CCC=C(C)C)C(=O)O [Sodium Fusidate]	–	–	–	–	–	–	about 6%	about 2.5%	–	–	–	more stable than Fusidic acid	98.7%
